Measured values published in patent US8715735B2, “Stabilised supersaturated solids of lipophilic drugs” (Bayer Intellectual Property GmbH, priority 2004, dated 2014).

Experiments:
[1] = Saturation concentration of estradiol valerate in solvent at room temperature; type: physicochemical
Procedure: The resulting liquid is mixed with 1000 g Aeroperl® 300 to give a powder with homogeneously absorbed liquid. 24 mg of the described stabilised supersaturated formulation contains 1 mg estradiol valerate. […] The resulting liquid is mixed with 1667 g Aeroperl® 300 to give a powder with homogeneously absorbed liquid. 67 mg of the described stabilised supersaturated formulation contains 1 mg estradiol valerate. […] The resulting liquid is mixed with 1000 g Aeroperl® 300 to give a powder with homogeneously absorbed liquid. 44 mg of the described stabilised supersaturated formulation contains 1 mg estradiol valerate.

[2] = In-vitro dissolution test, USP XXVIII paddle apparatus 2, 0.4% aqueous sodium dodecyl sulfate; type: physicochemical; details: approx. 1 mg estradiol valerate tested, 1000 mL 0.4% SDS, 37° C., 75 rpm
Procedure: Formulations according to the examples 1 to 4 were investigated in an in-vitro dissolution test according to USP XXVIII Paddle apparatus 2 using 1000 mL of an 0.4% aqueous solution of sodium dodecyl sulfate as dissolution medium to ensure sink condition (37° C., 75 rpm). The amount of formulations to be tested was selected so that the composition contains approx. 1 mg of estradiol valerate. As reference, 1 mg unformulated estradiol valerate was investigated.

saturation concentration ([1]; in medium chain triglycerides (MCT) at room temperature): approx. 27 g/L | saturation concentration ([1]; in peanut oil at room temperature): approx. 30 g/L | saturation concentration ([1]; in polyethylene glycol (PEG) 400 at room temperature): approx. 50 g/L | Release estradiol valerate, 3 min ([2]; 3 min): 0.34 mg | Release estradiol valerate, 6 min ([2]; 6 min): 0.41 mg | Release estradiol valerate, 10 min ([2]; 10 min): 0.47 mg | Release estradiol valerate, 15 min ([2]; 15 min): 0.67 mg | Release estradiol valerate, 30 min ([2]; 30 min): 0.76 mg
SMILES: CCCCC(=O)O[C@H]1CC[C@H]2[C@@H]3CCc4cc(O)ccc4[C@H]3CC[C@]12C [estradiol valerate]
